The target in assay [1] is T1, Glycogen synthase kinase-3 alpha (Homo sapiens, UniProt P49840). The assay can be described thus: Inhibition of GSK3alpha (unknown origin).
Target sequence in this assay (P49840 whole entry): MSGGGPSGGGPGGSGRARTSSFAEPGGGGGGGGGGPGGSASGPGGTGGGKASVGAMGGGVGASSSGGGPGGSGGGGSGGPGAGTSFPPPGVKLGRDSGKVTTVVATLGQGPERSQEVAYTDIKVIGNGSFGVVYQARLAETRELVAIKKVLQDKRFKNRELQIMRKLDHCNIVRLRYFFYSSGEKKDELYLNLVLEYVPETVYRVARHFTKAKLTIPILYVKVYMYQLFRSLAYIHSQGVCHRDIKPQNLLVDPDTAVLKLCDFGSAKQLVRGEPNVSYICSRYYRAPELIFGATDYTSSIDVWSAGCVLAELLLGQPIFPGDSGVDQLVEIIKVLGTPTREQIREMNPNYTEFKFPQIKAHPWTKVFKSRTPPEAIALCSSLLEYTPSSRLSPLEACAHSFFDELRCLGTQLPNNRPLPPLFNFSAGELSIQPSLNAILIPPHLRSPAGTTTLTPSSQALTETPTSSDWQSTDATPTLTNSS
Assay [2] deals with T2, Glycogen synthase kinase-3 beta (Homo sapiens, UniProt P49841). As to the kind of experiment: Inhibition of GSK3beta (unknown origin).
Target sequence in this assay (P49841 whole entry): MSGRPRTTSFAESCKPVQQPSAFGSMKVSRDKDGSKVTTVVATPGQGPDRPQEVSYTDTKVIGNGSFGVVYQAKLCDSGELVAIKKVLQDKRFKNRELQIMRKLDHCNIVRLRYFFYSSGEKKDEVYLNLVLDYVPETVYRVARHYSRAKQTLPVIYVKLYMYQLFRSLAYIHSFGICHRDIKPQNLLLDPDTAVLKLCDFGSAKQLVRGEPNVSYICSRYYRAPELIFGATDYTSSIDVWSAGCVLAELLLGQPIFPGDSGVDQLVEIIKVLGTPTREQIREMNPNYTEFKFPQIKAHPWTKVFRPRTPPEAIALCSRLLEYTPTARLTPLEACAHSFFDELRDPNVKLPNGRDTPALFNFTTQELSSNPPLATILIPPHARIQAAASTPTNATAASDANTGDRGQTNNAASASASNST
The target of assay [3] is T1, Glycogen synthase kinase-3 alpha. The assay can be described thus: Inhibition of GSK3alpha (unknown origin) at 2 uM relative to control.
Target sequence in this assay (P49840 2-483 limits assumed): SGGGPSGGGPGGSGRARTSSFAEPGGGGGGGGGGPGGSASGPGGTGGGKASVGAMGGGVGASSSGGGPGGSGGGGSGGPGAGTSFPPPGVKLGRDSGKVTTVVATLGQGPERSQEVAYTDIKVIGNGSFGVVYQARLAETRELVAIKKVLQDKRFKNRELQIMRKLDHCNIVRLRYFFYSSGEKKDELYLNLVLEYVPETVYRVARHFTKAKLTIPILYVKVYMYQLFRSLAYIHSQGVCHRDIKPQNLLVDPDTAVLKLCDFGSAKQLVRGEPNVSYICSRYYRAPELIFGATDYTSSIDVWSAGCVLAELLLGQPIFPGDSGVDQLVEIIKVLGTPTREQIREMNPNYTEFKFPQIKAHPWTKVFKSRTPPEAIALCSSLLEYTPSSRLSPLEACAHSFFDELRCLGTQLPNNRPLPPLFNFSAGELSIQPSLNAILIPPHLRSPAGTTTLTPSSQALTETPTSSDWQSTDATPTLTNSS
The target of assay [4] is T2, Glycogen synthase kinase-3 beta. As to the kind of experiment: Inhibition of GSK3beta (unknown origin) at 2 uM relative to control.
Target sequence in this assay (P49841 whole entry, looked up): as the sequence (P49841 whole entry) above

Each structure is given as a SMILES string.

Consider `OC1(c2ccccc2)CSC(=S)N1Cc1ccncc1` (stereo not drawn), for which the IC50 in assay [1] worked out at 0.0182 µM; in assay [2], 0.0122 µM. Besides, the inhibition in assay [3] and in assay [4] was greater than 90% in each case.

In the case of `OC1(c2ccccc2)CSC(=S)N1Cc1ccccn1` (stereo not drawn), the IC50 in assay [1] and in assay [2] was greater than 10 µM each time.

With `OC1(c2ccccc2)CSC(=S)N1Cc1ccccc1` (stereo not drawn), the half-maximal inhibitory concentration (IC50) in assay [1] and in assay [2] was greater than 10 µM each time.

The record behind these values is ChEMBL document CHEMBL6109041, “Docking and structure activity relationship studies of potent and selective thiazolidinethione GSK-3 inhibitors” (Bioorg Med Chem Lett, 2025).
